# Assays:
# in vitro = settings: African green monkey, Cytotox CC50
# [1] = test system: BDBV (mucin-deleted glycoprotein, VSV pseudotype); assay: microbe, parasite or virus in culture; type: cell-based, Bundibugyo ebolavirus; settings: Vesicular stomatitis virus, Vero, 24 h, read-out: EC50 Pseudotype Assays BDBV
# [2] = test system: EBOV (mucin-deleted glycoprotein, VSV pseudotype); assay: microbe, parasite or virus in culture; type: cell-based, Zaire ebolavirus; settings: Zaire ebolavirus, Vero, 24 h, read-out: EC50 Pseudotype Assays EBOV
# [3] = test system: MARV (full-length glycoprotein, VSV pseudotype); assay: microbe, parasite or virus in culture; type: cell-based, Marburg marburgvirus; settings: for EC50: Vesicular stomatitis virus, Vero, 24 h, read-out: EC50 Pseudotype Assays MARV
# [4] = test system: SUDV (glycoprotein, VSV pseudotype); assay: microbe, parasite or virus in culture; type: cell-based, Sudan ebolavirus; settings: Vesicular stomatitis virus, Vero, 24 h, read-out: EC50 Pseudotype Assays SUDV
SMILES,CC50 (in vitro),EC50 [1],EC50 [2],EC50 [3],EC50 [4],fold more potent against Marburgvirus infection compared to the opposite enantiomer [3]
CC12CC3CC(C(=O)NC4CC5CNC4C5)(C1)CC(c1ccccc1)(C3)C2 (racemic) [Example A30],30 µM,0.7 µM,0.25 µM,5 µM,0.8 µM,
CCC12CC3CC(CN[C@H]4CC[C@H](CN)CC4)(C1)CC(c1ccccc1)(C3)C2 (stereo partly drawn) [Example A64],1.24 µM,0.3 µM,0.61 µM,,0.53 µM,
CC12CC3CC(C(=O)NC45CCN(CC4)CC5)(C1)CC(c1ccccc1)(C3)C2 (racemic) [Example A60],23.1 µM,0.12 µM,0.035 µM,,0.33 µM,
CC12CC3CC(C(=O)N4CCC[C@H](N)C4)(C1)CC(c1ccccc1)(C3)C2 (mixture of isomers) [Example A56],9.09 µM,0.075 µM,0.107 µM,,0.06 µM,
CC12CC3CC(C(=O)N4CCC5(CC5N)C4)(C1)CC(c1ccccc1)(C3)C2 (racemic) [Example A41],27.7 µM,0.209 µM,0.153 µM,,0.68 µM,
CC12CC3CC(C(=O)N4CCCC(N)CC4)(C1)CC(c1ccccc1)(C3)C2 (racemic) [Example A43],13 µM,0.126 µM,0.147 µM,,0.37 µM,
CC12CC3CC(C(=O)N4CC[C@@H](N)C4)(C1)CC(c1ccccc1)(C3)C2 (mixture of isomers) [Example A55],12.6 µM,0.16 µM,0.14 µM,,0.37 µM,
NC1CCN(CC23CC4CC(C2)CC(c2ccccc2)(C4)C3)CC1 [Example A68],7.47 µM,0.28 µM,0.6 µM,> 3 µM,0.4 µM,
CCC1CNCCN1C(=O)C12CC3CC(C)(C1)CC(c1ccccc1)(C3)C2 (racemic) [Example A36],8.31 µM,0.229 µM,0.171 µM,,0.13 µM,
CC1CN(C(=O)C23CC4CC(C)(C2)CC(c2ccccc2)(C4)C3)CCC1N (racemic) [Example A39],13.2 µM,0.091 µM,0.046 µM,,0.21 µM,
CCC12CC3CC(CNC4CCNCC4)(C1)CC(c1ccccc1)(C3)C2 (stereo not drawn) [Example A62],1.62 µM,0.5 µM,0.9 µM,,0.54 µM,
CCOCC12CC3CC(C(=O)N[C@H]4CC[C@@H](N)CC4)(C1)CC(c1ccccc1)(C3)C2 (mixture of isomers) [Example A29],16.3 µM,0.79 µM,0.062 µM,,> 1 µM,
CC12CC3CC(C(=O)N4CCCNCC4)(C1)CC(c1ccccc1)(C3)C2 (racemic) [Example A34],23.7 µM,0.12 µM,0.09 µM,,0.18 µM,
CC12CC3CC(C(=O)N4C[C@H]5CNC[C@H]5C4)(C1)CC(c1ccccc1)(C3)C2 (mixture of isomers) [Example A45],30.6 µM,0.301 µM,0.205 µM,,0.33 µM,
CC[C@@]12CC3CC(C(=O)N[C@H]4CC[C@H](N)CC4)(C1)C[C@](c1ccccc1)(C3)C2 [Example C16],,0.388 µM,0.353 µM,2.97 µM,0.94 µM,
CC12CC3CC(C(=O)N4C5CCC4CC(N)C5)(C1)CC(c1ccccc1)(C3)C2 (racemic) [Example A42],11.8 µM,0.19 µM,0.033 µM,,0.46 µM,
CCC12CC3CC(C(=O)NC4CCC5(CC4)CNC5)(C1)CC(c1ccccc1)(C3)C2 (racemic) [Example A27],7.9 µM,0.567 µM,0.134 µM,,1.75 µM,
CC[C@]12CC3CC(C(=O)N[C@H]4CC[C@H](N)CC4)(C1)C[C@@](c1ccccc1)(C3)C2 [Example B16],,0.057 µM,0.016 µM,3.02 µM,0.18 µM,
c1ccc(C23CC4CC(CC(CN5CCNCC5)(C4)C2)C3)cc1 [Example A67],,> 1 µM,> 1 µM,,> 1 µM,
CC1(C)CN(CC23CC4C[C@](C)(C2)C[C@@](c2ccccc2)(C4)C3)CC[C@H]1N [Example C71],,> 1 µM,> 1 µM,,> 1 µM,
CC1(N)CCN(C(=O)C23CC4CC(C)(C2)CC(c2ccccc2)(C4)C3)CC1 (racemic) [Example A37],10.9 µM,0.0587 µM,0.058 µM,,0.22 µM,
C[C@@]12CC3CC(C(=O)NC4CCNCC4)(C1)C[C@](c1ccccc1)(C3)C2 [Example C1],16.3 µM,0.186 µM,0.238 µM,,0.685 µM,
CC1(C)CN(C(=O)C23CC4C[C@](C)(C2)C[C@@](c2ccccc2)(C4)C3)CCC1N (stereo partly drawn) [Example C8],12.4 µM,0.123 µM,0.097 µM,,0.55 µM,

SMILES,CC50 (in vitro),EC50 [1],EC50 [2],EC50 [3],EC50 [4],fold more potent against Marburgvirus infection compared to the opposite enantiomer [3]
CC1CC(N)CCN1C(=O)C12CC3CC(C)(C1)CC(c1ccccc1)(C3)C2 (racemic) [Example A40],24.6 µM,0.165 µM,0.069 µM,,0.45 µM,
CC1(C)CN(CC23CC4C[C@@](C)(C2)C[C@](c2ccccc2)(C4)C3)CC[C@H]1N [Example B71],,1.03 µM,1.18 µM,,> 1 µM,
CC1(C)CN(CC23CC4C[C@@](C)(C2)C[C@](c2ccccc2)(C4)C3)CC[C@@H]1N [Example B70],,0.93 µM,0.628 µM,,1.02 µM,
CCC12CC3CC(CNC4CCNCC4(C)C)(C1)CC(c1ccccc1)(C3)C2 (stereo not drawn) [Example A61],1.24 µM,0.75 µM,0.8 µM,,0.66 µM,
CC12CC3CC(C(=O)N4CC5(CCNCC5)C4)(C1)CC(c1ccccc1)(C3)C2 (racemic) [Example A44],27.2 µM,0.075 µM,0.045 µM,,0.245 µM,
C[C@]12CC3CC(C(=O)N4CC5(CC(N)C5)C4)(C1)C[C@@](c1ccccc1)(C3)C2 [Example B11],23.6 µM,0.104 µM,0.064 µM,,0.26 µM,
CC12CC3CC(C(=O)N4CCC[C@@H](N)C4)(C1)CC(c1ccccc1)(C3)C2 (mixture of isomers) [Example A57],7.88 µM,0.17 µM,0.055 µM,,0.22 µM,
CC12CC3CC(CN[C@H]4CC[C@H](N)CC4)(C1)CC(c1ccccc1)(C3)C2 (stereo partly drawn) [Example A65],1.62 µM,0.175 µM,0.28 µM,0.89 µM,0.18 µM,
CC12CC3CC(C(=O)N4CC[C@H](N)C4)(C1)CC(c1ccccc1)(C3)C2 (mixture of isomers) [Example A54],11.3 µM,0.2 µM,0.12 µM,,0.35 µM,
C[C@@]12CC3CC(C(=O)N[C@H]4CN5CCC4CC5)(C1)C[C@](c1ccccc1)(C3)C2 [Example C58],10.1 µM,0.188 µM,0.785 µM,0.1 µM,1.01 µM,16 fold
C[C@@]12CC3CC(C(=O)N4CCC(N)C5(CC5)C4)(C1)C[C@](c1ccccc1)(C3)C2 (stereo partly drawn) [Example C9],,0.15 µM,0.269 µM,,0.62 µM,
CC12CC3CC(C(=O)N[C@@H]4CCCN5CCC[C@H]45)(C1)CC(c1ccccc1)(C3)C2 (mixture of isomers) [Example A59],12.7 µM,0.257 µM,0.026 µM,,0.4 µM,
CC12CC3CC(C(=O)N4CC5(CNC5)C4)(C1)CC(c1ccccc1)(C3)C2 (racemic) [Example A47],42.3 µM,0.238 µM,0.065 µM,,0.335 µM,
C[C@@]12CC3CC(C(=O)N4CC5(CC(N)C5)C4)(C1)C[C@](c1ccccc1)(C3)C2 [Example C11],,0.315 µM,0.576 µM,,0.96 µM,
CCC12CC3CC(CN[C@H]4CCN[C@@H](C)C4)(C1)CC(c1ccccc1)(C3)C2 (stereo partly drawn) [Example A63],1.47 µM,0.435 µM,0.725 µM,,0.74 µM,
CC1(C)CN(C(=O)C23CC4C[C@@](C)(C2)C[C@](c2ccccc2)(C4)C3)CC[C@H]1N [Example B12],13.3 µM,0.105 µM,0.095 µM,,0.2 µM,
CCC12CC3CC(C(=O)N4CC[C@H](N)[C@@H](F)C4)(C1)CC(c1ccccc1)(C3)C2 (mixture of isomers) [Example A24],11.2 µM,0.253 µM,0.203 µM,,0.31 µM,
CC12CC3CC(C(=O)N4CCC5(CCNCC5)CC4)(C1)CC(c1ccccc1)(C3)C2 (racemic) [Example A50],8.78 µM,0.09 µM,0.061 µM,,0.16 µM,
CC12CC3CC(C(=O)N4CCC(N)(CO)CC4)(C1)CC(c1ccccc1)(C3)C2 (racemic) [Example A46],12.2 µM,0.048 µM,0.041 µM,,0.09 µM,
N#CC12CC3CC(C(=O)N[C@H]4CC[C@H](N)CC4)(C1)CC(c1ccccc1)(C3)C2 (mixture of isomers) [Example A53],,> 1 µM,0.67 µM,,> 1 µM,
CC1(C)CN(CC23CC4C[C@](C)(C2)C[C@@](c2ccccc2)(C4)C3)CC[C@@H]1N [Example C70],,1.02 µM,> 1 µM,,1.28 µM,
CC12CC3CC(C(=O)N4CCC5(CCN5)CC4)(C1)CC(c1ccccc1)(C3)C2 (racemic) [Example A51],,0.228 µM,0.157 µM,,0.52 µM,
C[C@@H]1C[C@H](NC(=O)C23CC4C[C@@](C)(C2)C[C@](c2ccccc2)(C4)C3)CCN1 [Example B14],14.4 µM,0.25 µM,0.025 µM,,0.73 µM,
